In patent US11576914B2, “Drug for treating or preventing disorder caused by TGF-β signaling, and application thereof” (THE DOSHISHA, priority 2017, dated 2023):

System: Fuchs corneal endothelial dystrophy (FECD) model mice (Col8a2 Q455K/Q455K)
Experiment: In vivo evaluation in FECD model mice
Conditions: ophthalmic solution 0.1 mM, 1 mM, 10 mM, 2 μl twice daily, 3 months
Procedure: In the present example, mice having a type 8 collagen mutation (Col8a2^Q455K/Q455K) are used as Fuchs corneal endothelial dystrophy (FECD) model mice.
Grading of the severity of FECD was performed on the basis of corneal endothelium images prior to instillation testing, and FECD model mice aged 20-24 weeks with similar symptoms were used. The prepared AKP-001 ophthalmic solution (0.1 mM, 1 mM, and 10 mM) is instilled into the left and right eyes, 2 μl at a time, twice daily in the morning and evening for 45 mice. Otsuka Normal Saline (Otsuka Pharmaceutical Co., Ltd.) is used as a control. The instillation period is set to be 3 months, during which the person in charge of the experimentation carries out the experimentation in a blinded state regarding the AKP-001 ophthalmic solution and the control ophthalmic solution.
Prior to the start of the instillation testing, corneal endothelial images are observed with a contact corneal endothelial specular (KSSP slit-scanning wide-field contact specular microscope (Konan medical Inc., Hyogo, Japan)) to conduct grading. After starting the instillation testing, the corneal endothelial images of the mice are observed once every 4 weeks using the contact corneal endothelial specular to evaluate the effectiveness of the AKP-001 ophthalmic solution.

With `O=C(Cc1c(F)cccc1Cl)Nc1onc(-c2ccc(F)cc2)c1-c1ccncn1` [AKP-001, 5-[(2-chloro-6-fluorophenyl)acetylamino]-3-(4-fluorophenyl)-4-(4-pyrimidinyl)isoxazole] the “decrease in corneal endothelial cell density compared to the control” value was “suppressed” and the “percentage of the area of guttae compared to the control” value was “decreased”.
